Here are results for one molecule from ChEMBL document CHEMBL5365463, “Identification of a Self-Assembling Small-Molecule Cancer Vaccine Adjuvant with an Improved Toxicity Profile” (J Med Chem, 2023).

Molecules are shown by their SMILES. Activity calls are given as the source filed them. No cut-off for these calls is given here.

Data set [1] is described as follows: Toxicity in BALB/c mouse assessed as increase in Mx2 expression at 100 to 1000 ug measured after 16 hrs in presence of hemagglutinin. To be noted: in vivo, dose 100-1000 µg.
Data set [2] has as its system RAW264.7. The data set is described as follows: Induction of apoptosis in mouse RAW264.7 cells assessed as live cells at 16 uM by flow cytometry analysis (reference value: 75.4 %). It counts as functional. In general terms: In flow cytometry, cells or beads pass a laser one at a time.
Data set [3] can be described thus: Toxicity in C57BL/6 mouse assessed as effect on ALP level in serum at 500 ug measured after 1 day after immunization. To be noted: 24 h, dose 500 µg.
A short description of data set [4]: Upregulation of CD40 expression in mouse RAW264.7 cells assessed as fold increase in fluorescence intensity at 20 uM measured after 24 hrs by flow cytometry analysis. It counts as functional.
The subject of data set [5] is RAW264.7. Put plainly: Induction of apoptosis in mouse RAW264.7 cells assessed as necrotic cells at 10 uM by flow cytometry analysis (reference value: 20.6 %). It counts as functional.
Data set [6] deals with B16-OVA melanoma cell. The data set is described as follows: Antitumor activity against mouse B16-OVA melanoma cell xenografted in C57BL/6 mouse assessed as effect on central memory T cell in spleen at 500 ug, sc in presence of OVAp by flow cytometry analysis. It is filed as functional, organism-based. Particulars: dose 500.0 µg.
Data set [7] can be described thus: Toxicity in BALB/c mouse assessed as reduction in platelet count measured after 16 hrs. To be noted: dose 100-1000 µg.
A short description of data set [8]: Toxicity in C57BL/6 mouse assessed as effect on lung at 500 ug, sc by H and E staining based analysis. Particulars: in vivo, dose 500 µg. It is filed as organism-based.
For the next data set, the system named is BMDC. The data set is described as follows: Induction of immune response in TLR7 knockout mouse BMDC cells assessed as increase in IL-6 production at 10 to 100 uM incubated for 24 hrs by ELISA method. Particulars: dose 10-100 µM. It counts as functional, cell-based.
Data set [9] concerns RAW264.7. The data set is described as follows: Induction of apoptosis in mouse RAW264.7 cells assessed as apoptotic cells at 8 uM by flow cytometry analysis (reference value: 3.26 %). It is filed as functional.
The test system of data set [10] is RAW264.7. The data set is described as follows: Induction of apoptosis in mouse RAW264.7 cells assessed as apoptotic cells at 16 uM by flow cytometry analysis (reference value: 3.26 %). It is filed as functional.
Data set [11] concerns B16-OVA melanoma cell. The data set is described as follows: Antitumor activity against mouse B16-OVA melanoma cell xenografted in C57BL/6 mouse assessed as increase in CD8+T cell level in spleen at 500 ug measured after 24 hrs in presence of OVAp by flow cytometry analysis. Particulars: dose 500.0 µg. It is filed as functional, cell-based.
Data set [12] in a line: Toxicity in C57BL/6 mouse assessed as effect on spleen at 500 ug, sc by H and E staining based analysis. Particulars: in vivo, dose 500 µg. It is filed as organism-based.
Data set [13] can be described thus: Antitumor activity against mouse B16-OVA melanoma cell xenografted in C57BL/6 mouse assessed as fold increase in IFN-gamma+TNF-alpha+ at 500 ug, sc in presence of OVAp by flow cytometry analysis. It counts as functional. To be noted: dose 500 µg.
For data set [14], the system named is B16-OVA melanoma cell. Put plainly: Antitumor activity against mouse B16-OVA melanoma cell xenografted in C57BL/6 mouse assessed as at 500 ug administered 5 times for every 2 days from day 9 to 17 in presence of OVAp. It counts as functional, cell-based. Particulars: dose 500.0 µg, time 9.0 day.
For data set [15], the species on record is Mus musculus. The data set is described as follows: Induction of immune response in OVAp immunized C57BL/6 mouse assessed as increase in number of antigen-specific IFN-gamma+ CD44+ CD8+ T cells in spleen at 100 ug measured after 35 days by flow cytometry analysis. It counts as functional, organism-based. Particulars: T-cell, dose 100.0 µg, time 35.0 day.

The species named for data set [16] is Mus musculus. The data set is described as follows: Induction of immune response in OVAp immunized C57BL/6 mouse assessed as fold increase in IFN-gamma+ cytotoxic T lymphocytes at 100 ug measured after 35 days by flow cytometry analysis. Particulars: dose 100 µg; time 35 day. It counts as functional, T-cell.

`C[C@H](CCC(=O)NCCCCCCCNC(=O)CC[C@@H](C)[C@H]1CC[C@H]2[C@@H]3CC[C@@H]4C[C@H](O)CC[C@]4(C)[C@H]3C[C@H](O)[C@]12C)[C@H]1CC[C@H]2[C@@H]3CC[C@@H]4C[C@H](O)CC[C@]4(C)[C@H]3C[C@H](O)[C@]12C`: the Activity result in data set [1] is recorded as “Non-Toxic”; with RAW264.7 [2], 63.4%; in data set [3] it was “Non-Toxic”; in the data set with RAW264.7 [5], 28.6%; in data set [7], “Dose-Dependent Effect”; in data set [8], “Non-Toxic”. Moreover, the results for the Activity (in the data set on RAW264.7 [9]; with RAW264.7 [10]; in data set [12]) were 1.47%, 0.63% and “Non-Toxic”, respectively. In addition, the “fold change (FC)” value in data set [4] worked out at 1.3; in [13] it was 2.8; in the data set listed under Mus musculus [16] it was 7.6. Further, the outcome with B16-OVA melanoma cell [6], with B16-OVA melanoma cell [11], with B16-OVA melanoma cell [14] and in the data set filed under Mus musculus [15] was Active. Moreover, in the data set with BMDC, the outcome was inactive.
